Literature values in patent publication US9248119B2, “Modified release dosage forms of xanthine oxidoreductase inhibitor or xanthine oxidase inhibitors” (Takeda Pharmaceuticals U.S.A., Inc., priority 2010, dated 2016).

Key:
[1] = test system: renal injury and hypertension associated with hyperuricemia; settings: Mazzali M, et al.; cited from earlier work
xanthine oxidoreductase = settings: cited from earlier work

SMILES: Oc1ncnc2[nH]ncc12 [Allopurinol]
- protection against renal injury and hypertension associated with hyperuricemia [1]: prevent the renal injury and hypertension

SMILES: CCc1oc2ccccc2c1C(=O)c1cc(I)c(O)c(I)c1 [Benziodarone]
- protection against renal injury and hypertension associated with hyperuricemia [1]: lower
- inhibition of xanthine oxidoreductase activity (xanthine oxidoreductase): does not inhibit
